Results: ChEMBL document CHEMBL5550123, “Discovery of novel pyridone-benzamide derivatives possessing a 1-methyl-2-benzimidazolinone moiety as potent EZH2 inhibitors for the treatment of B-cell lymphomas” (Bioorg Med Chem, 2024)

Key:
KARPAS-422 [1] = test: Induction of apoptosis in human KARPAS-422 cells incubated for 72 hrs again compound diluted in growth medium measured after 96 hrs by annexin-V FITC and propidium iodide based flow cytometry analysis; assay type: functional, cell-based; details: dose 2.5-20 nM, time 168.0 hrs
KARPAS-422 [2] = test: Induction of cell cycle arrest in human KARPAS-422 cells assessed as accumulation of cells at G1 phase at 10 nM incubated for 72 hrs again compound diluted in growth medium measured after 96 hrs by propidium iodide staining based flow cytometry analysis (reference value: 47.71%); assay type: functional; details: time 168 hrs
[3] = Metabolic stability in human liver microsomes assessed as half life at 1 uM measured upto 60 mins in presence of NADPH by LC-MS/MS analysis; assay type: ADME, Microsome
KARPAS-422 [4] = test: Induction of apoptosis in human KARPAS-422 cells assessed as late apoptotic cells at 5 nM incubated for 72 hrs again compound diluted in growth medium measured after 96 hrs by annexin-V FITC and propidium iodide based flow cytometry analysis (reference value: […]%); assay type: functional; details: time 168 hrs
[5] = Inhibition of EZH2 Y641F mutant (unknown origin) preincubated for 15 mins followed by substrate addition and measured after 45 mins by AlphaLISA assay; set-up: species or system Homo sapiens
KARPAS-422 [6] = test: Induction of apoptosis in human KARPAS-422 cells assessed as viable cells at 10 nM incubated for 72 hrs again compound diluted in growth medium measured after 96 hrs by annexin-V FITC and propidium iodide based flow cytometry analysis (reference value: 95.57%); assay type: functional; details: time 168 hrs, read-out: Activity
KARPAS-422 [7] = test: Induction of cell cycle arrest in human KARPAS-422 cells assessed as accumulation of cells at G1 phase at 2.5 nM incubated for 72 hrs again compound diluted in growth medium measured after 96 hrs by propidium iodide staining based flow cytometry analysis (reference value: 47.71%); assay type: functional; details: time 168 hrs
KARPAS-422 [8] = test: Induction of cell cycle arrest in human KARPAS-422 cells assessed as accumulation of cells at S phase at 2.5 nM incubated for 72 hrs again compound diluted in growth medium measured after 96 hrs by propidium iodide staining based flow cytometry analysis (reference value: 35.89%); assay type: functional; details: time 168 hrs
[9] = Metabolic stability in human liver microsomes assessed as intrinsic clearance at 1 uM measured upto 60 mins in presence of NADPH by LC-MS/MS analysis; assay type: ADME, Microsome; details: read-out: CLH
KARPAS-422 [10] = test: Induction of apoptosis in human KARPAS-422 cells assessed as viable cells at 2.5 nM incubated for 72 hrs again compound diluted in growth medium measured after 96 hrs by annexin-V FITC and propidium iodide based flow cytometry analysis (reference value: 95.57%); assay type: functional; details: time 168 hrs, read-out: Activity
KARPAS-422 [11] = test: Induction of apoptosis in human KARPAS-422 cells assessed as late apoptotic cells at 5 nM incubated for 72 hrs again compound diluted in growth medium measured after 96 hrs by annexin-V FITC and propidium iodide based flow cytometry analysis (reference value: 0.74%); assay type: functional; details: time 168 hrs
KARPAS-422 [12] = test: Induction of cell cycle arrest in human KARPAS-422 cells assessed as accumulation of cells at S phase at 5 nM incubated for 72 hrs again compound diluted in growth medium measured after 96 hrs by propidium iodide staining based flow cytometry analysis (reference value: 35.89%); assay type: functional; details: time 168 hrs
KARPAS-422 [13] = test: Induction of apoptosis in human KARPAS-422 cells assessed as viable cells at 5 nM incubated for 72 hrs again compound diluted in growth medium measured after 96 hrs by annexin-V FITC and propidium iodide based flow cytometry analysis (reference value: 95.57%); assay type: functional; details: time 168 hrs, read-out: Activity
KARPAS-422 [14] = test: Induction of cell cycle arrest in human KARPAS-422 cells assessed as accumulation of cells at G1 phase at 20 nM incubated for 72 hrs again compound diluted in growth medium measured after 96 hrs by propidium iodide staining based flow cytometry analysis (reference value: 47.71%); assay type: functional; details: time 168 hrs
KARPAS-422 [15] = test: Induction of cell cycle arrest in human KARPAS-422 cells assessed as accumulation of cells at S phase at 10 nM incubated for 72 hrs again compound diluted in growth medium measured after 96 hrs by propidium iodide staining based flow cytometry analysis (reference value: 35.89%); assay type: functional; details: time 168 hrs
KARPAS-422 [16] = test: Induction of apoptosis in human KARPAS-422 cells assessed as viable cells at 20 nM incubated for 72 hrs again compound diluted in growth medium measured after 96 hrs by annexin-V FITC and propidium iodide based flow cytometry analysis (reference value: 95.57%); assay type: functional; details: time 168 hrs, read-out: Activity
KARPAS-422 [17] = test: Induction of apoptosis in human KARPAS-422 cells assessed as late apoptotic cells at 10 nM incubated for 72 hrs again compound diluted in growth medium measured after 96 hrs by annexin-V FITC and propidium iodide based flow cytometry analysis (reference value: 0.74%); assay type: functional; details: time 168 hrs
KARPAS-422 [18] = test: Induction of apoptosis in human KARPAS-422 cells assessed as late apoptotic cells at 20 nM incubated for 72 hrs again compound diluted in growth medium measured after 96 hrs by annexin-V FITC and propidium iodide based flow cytometry analysis (reference value: 0.74%); assay type: functional; details: time 168 hrs
KARPAS-422 [19] = test: Induction of cell cycle arrest in human KARPAS-422 cells assessed as accumulation of cells at G2 phase at 20 nM incubated for 72 hrs again compound diluted in growth medium measured after 96 hrs by propidium iodide staining based flow cytometry analysis (reference value: 16.41%); assay type: functional; details: time 168 hrs
KARPAS-422 [20] = test: Induction of apoptosis in human KARPAS-422 cells assessed as late apoptotic cells at 10 nM incubated for 72 hrs again compound diluted in growth medium measured after 96 hrs by annexin-V FITC and propidium iodide based flow cytometry analysis (reference value: […]%); assay type: functional; details: time 168 hrs
KARPAS-422 [21] = test: Induction of cell cycle arrest in human KARPAS-422 cells assessed as accumulation of cells at S phase at 20 nM incubated for 72 hrs again compound diluted in growth medium measured after 96 hrs by propidium iodide staining based flow cytometry analysis (reference value: 35.89%); assay type: functional; details: time 168 hrs
KARPAS-422 [22] = test: Induction of cell cycle arrest in human KARPAS-422 cells assessed as accumulation of cells at G2 phase at 5 nM incubated for 72 hrs again compound diluted in growth medium measured after 96 hrs by propidium iodide staining based flow cytometry analysis (reference value: 16.41%); assay type: functional; details: time 168 hrs
KARPAS-422 [23] = test: Induction of cell cycle arrest in human KARPAS-422 cells assessed as accumulation of cells at G1 phase at 5 nM incubated for 72 hrs again compound diluted in growth medium measured after 96 hrs by propidium iodide staining based flow cytometry analysis (reference value: 47.71%); assay type: functional; details: time 168 hrs
KARPAS-422 [24] = test: Antiproliferative activity against human KARPAS-422 cells assessed as inhibition of cell growth measured after 72 hrs by CCK-8 method; assay type: functional, cell-based; details: KARPAS-422, 72 h
KARPAS-422 [25] = test: Induction of apoptosis in human KARPAS-422 cells assessed as early apoptotic cells at 5 nM incubated for 72 hrs again compound diluted in growth medium measured after 96 hrs by annexin-V FITC and propidium iodide based flow cytometry analysis (reference value: 2.62%); assay type: functional; details: time 168 hrs
KARPAS-422 [26] = test: Induction of cell cycle arrest in human KARPAS-422 cells assessed as accumulation of cells at G2 phase at 10 nM incubated for 72 hrs again compound diluted in growth medium measured after 96 hrs by propidium iodide staining based flow cytometry analysis (reference value: 16.41%); assay type: functional; details: time 168 hrs
KARPAS-422 [27] = test: Induction of apoptosis in human KARPAS-422 cells assessed as early apoptotic cells at 2.5 nM incubated for 72 hrs again compound diluted in growth medium measured after 96 hrs by annexin-V FITC and propidium iodide based flow cytometry analysis (reference value: 2.62%); assay type: functional; details: time 168 hrs
KARPAS-422 [28] = test: Induction of cell cycle arrest in human KARPAS-422 cells assessed as accumulation of cells at G2 phase at 2.5 nM incubated for 72 hrs again compound diluted in growth medium measured after 96 hrs by propidium iodide staining based flow cytometry analysis (reference value: 16.41%); assay type: functional; details: time 168 hrs
KARPAS-422 [29] = test: Induction of apoptosis in human KARPAS-422 cells assessed as early apoptotic cells at 10 nM incubated for 72 hrs again compound diluted in growth medium measured after 96 hrs by annexin-V FITC and propidium iodide based flow cytometry analysis (reference value: 2.62%); assay type: functional; details: time 168 hrs
KARPAS-422 [30] = test: Induction of apoptosis in human KARPAS-422 cells assessed as early apoptotic cells at 20 nM incubated for 72 hrs again compound diluted in growth medium measured after 96 hrs by annexin-V FITC and propidium iodide based flow cytometry analysis (reference value: 2.62%); assay type: functional; details: time 168 hrs
KARPAS-422 [31] = test: Induction of apoptosis in human KARPAS-422 cells assessed as late apoptotic cells at 2.5 nM incubated for 72 hrs again compound diluted in growth medium measured after 96 hrs by annexin-V FITC and propidium iodide based flow cytometry analysis (reference value: […]%); assay type: functional; details: time 168 hrs
[32] = Inhibition of EZH2 Y641N mutant (unknown origin) preincubated for 15 mins followed by substrate addition and measured after 45 mins by AlphaLISA assay; set-up: species or system Homo sapiens
KARPAS-422 [33] = test: Induction of apoptosis in human KARPAS-422 cells assessed as late apoptotic cells at 2.5 nM incubated for 72 hrs again compound diluted in growth medium measured after 96 hrs by annexin-V FITC and propidium iodide based flow cytometry analysis (reference value: 0.74%); assay type: functional; details: time 168 hrs
KARPAS-422 [34] = test: Induction of apoptosis in human KARPAS-422 cells assessed as late apoptotic cells at 20 nM incubated for 72 hrs again compound diluted in growth medium measured after 96 hrs by annexin-V FITC and propidium iodide based flow cytometry analysis (reference value: […]%); assay type: functional; details: time 168 hrs

SMILES: CCN(c1cc(-c2ccc3c(c2)n(C)c(=O)n3C2CCN(C)CC2)cc(C(=O)NCc2c(C)cc(C)[nH]c2=O)c1C)C1CCC(N(C)C)CC1 (centres undefined)
- Activity (KARPAS-422 [1]): Dose-Dependent Effect
- Activity (KARPAS-422 [2]): 59.1%
- half-life at 1 µM [3]: 2.96 h
- Activity (KARPAS-422 [4]): 2.96%
- IC50 [5]: 0.03 nM
- viability at 0.01 µM (KARPAS-422 [6]): 81.8%
- Activity (KARPAS-422 [7]): 52.26%
- Activity (KARPAS-422 [8]): 31.43%
- microsomal CLint at 1 µM [9]: 7.87 µL/min/mg
- viability at 0.0025 µM (KARPAS-422 [10]): 89.3%
- Activity (KARPAS-422 [11]): 8.08%
- Activity (KARPAS-422 [12]): 28.46%
- viability at 0.005 µM (KARPAS-422 [13]): 86.7%
- Activity (KARPAS-422 [14]): 65.03%
- Activity (KARPAS-422 [15]): 26.31%
- viability at 0.02 µM (KARPAS-422 [16]): 73.8%
- Activity (KARPAS-422 [17]): 5.47%
- Activity (KARPAS-422 [18]): 12.28%
- Activity (KARPAS-422 [19]): 10.74%
- Activity (KARPAS-422 [20]): 4.8%
- Activity (KARPAS-422 [21]): 24.24%
- Activity (KARPAS-422 [22]): 15.64%
- Activity (KARPAS-422 [23]): 55.91%
- IC50 (KARPAS-422 [24]): 3.52 nM
- Activity (KARPAS-422 [25]): 2.29%
- Activity (KARPAS-422 [26]): 14.6%
- Activity (KARPAS-422 [27]): 4.23%
- Activity (KARPAS-422 [28]): 16.32%
- Activity (KARPAS-422 [29]): 7.93%
- Activity (KARPAS-422 [30]): 7.09%
- Activity (KARPAS-422 [31]): 3.84%
- IC50 [32]: 0.08 nM
- Activity (KARPAS-422 [33]): 2.57%
- Activity (KARPAS-422 [34]): 6.81%
